According to US5789439A, “Pharmaceutical use of forskolin derivatives” (Nippon Kayaku Kabushiki Kaisha, priority 1990, dated 1998):
Structures can show the parent of a compound that is named as a salt.

Legend:
[1] = system: whole-stratum skin cut-off model (skin ulcer); assay: Remedial effect for skin ulcer, whole-stratum skin cut-off model in rats; format: in vivo, male Wister rats; details: for Lesion reduction rate in whole-stratum skin cut-off model: 1 ml of 1 mg/ml applied daily, mean, n = 2
Procedure: The remedial effect of NKH-477 for skin ulcer was ascertained by the following test.
The abdominal region of each of the test animals--male Wister rats (10 weeks old and weighing 350-390 g) divided into groups of 2--was […] and a piece of skin of about 3 cm in diameter was cut off from said abdominal region of each test rat under anesthesia with pentobarbital (40 mg/kg, i.p.) to prepare a whole-stratum skin cut-off model, and it was used as a skin ulcer model. NKH-477 was used as the test compound (specimen) while a physiological saline was used as control. The specimen was dissolved in a physiological saline (1 mg/ml), and 1 ml of the solution was applied directly to the affected region every day, the treated part being covered with gauze fixed in position. The areas of lesion after the lapse of 1 day, 2 days, 3 days and 5 days from start of application of the specimen solution were measured by a digitizer to determine the lesion reduction rate, from which the skin ulcer curative effect of the test compound was evaluated.

[2] = system: ADP-induced aggregation of rabbit blood thrombocyte; assay: ADP-induced platelet aggregation inhibition, rabbit platelet rich plasma; format: cell-based; details: Oryctolagus cuniculus, rabbit PRP, ADP 3×10^-6 M, mean, n = 5, read-out: Platelet aggregation inhibitory action (IC50), ADP-induced aggregation
Procedure: The platelet aggregation inhibitory action of NKH-477 was examined on collagen-induced aggregation and ADP-induced aggregation of rabbit blood thrombocyte. The male Japanese white rabbits (body weight: 2.4-2.8 kg, procured from Tokyo Experimental Animals Co., Ltd.) were divided into groups of 5. The rabbits were etherized and blood was collected from the carotid artery of each rabbit. A 3.8% sodium citrate solution (final concentration: 0.38%) was added to a portion of blood collected from each group of rabbits to obtain platelet rich plasma (PRP). The remaining portion of blood was centrifuged at 3,000 r.p.m. for 15 minutes to obtain platelet poor plasma (PPP). First, permeability of PRP and PPP was determined by using an aggregometer (RMA-31 mfd. by Rika Denki Kogyo K. K.) and set at 0% and 100%, respectively. Separately from the above operation, 250 μl of PRP was placed in a cuvette and after preliminary heating at 37° C. for 2 minutes, 20 μl of specimen was added and incubated under stirring for 2 minutes. Then 10 μl of ADP (Sigma, final conc.: 3×10^-6 M) or collagen (Hormon-Chemie, final conc.: 10 μg/ml) was added and the transmission rate was measured. The maximum transmission rate observed in this operation was termed as the maximum aggregation rate. Recording in this operation was conducted on an ink-written recorder (B-381L mfd. by Rika Denki Kogyo K. K.). […]

[3] = system: collagen-induced aggregation of rabbit blood thrombocyte; assay: Collagen-induced platelet aggregation inhibition, rabbit platelet rich plasma; format: cell-based
Procedure: The platelet aggregation inhibitory action of NKH-477 was examined on collagen-induced aggregation and ADP-induced aggregation of rabbit blood thrombocyte. The male Japanese white rabbits (body weight: 2.4-2.8 kg, procured from Tokyo Experimental Animals Co., Ltd.) were divided into groups of 5. The rabbits were etherized and blood was collected from the carotid artery of each rabbit. A 3.8% sodium citrate solution (final concentration: 0.38%) was added to a portion of blood collected from each group of rabbits to obtain platelet rich plasma (PRP). The remaining portion of blood was centrifuged at 3,000 r.p.m. for 15 minutes to obtain platelet poor plasma (PPP). First, permeability of PRP and PPP was determined by using an aggregometer (RMA-31 mfd. by Rika Denki Kogyo K. K.) and set at 0% and 100%, respectively. Separately from the above operation, 250 μl of PRP was placed in a cuvette and after preliminary heating at 37° C. for 2 minutes, 20 μl of specimen was added and incubated under stirring for 2 minutes. Then 10 μl of ADP (Sigma, final conc.: 3×10^-6 M) or collagen (Hormon-Chemie, final conc.: 10 μg/ml) was added and the transmission rate was measured. The maximum transmission rate observed in this operation was termed as the maximum aggregation rate. Recording in this operation was conducted on an ink-written recorder (B-381L mfd. by Rika Denki Kogyo K. K.). NKH-477 was dissolved in a physiological saline to make concentrations of 10^-8 to 10^-5 M. Forskolin dissolved in ethanol was used as control.

[4] = system: canine coronary artery; assay: Spasmolytic effect on KCl-induced contraction, canine coronary artery ring; details: for Inhibition rate, Coronary artery: 30 mM KCl, papaverine 10^-4 M = 100%, mean ± SE, n = 6
Procedure: The canine coronary and basilar arteries were extirpated under anesthesia with pentobarbital to prepare the 3 mm wide ring preparation. Each preparation was suspended in a 10-ml organ bath filled with a Krebs-Henseleit solution by applying a static tension of 1.5 g (for the coronary artery) and 1.0 g (for the basilar artery). The nutrient solution was maintained at 37° C. and aerated with a 95% 02 /5% CO2 gas. The isometric mascular tension was measured with an FD pickup (TB-611T mfd. by Nihon Kohden K. K.) and recorded on a recorder (TI-104 mfd. by Tokai IRIKA K. K.).
After about 2 hours of equilibrium time, contraction was induced with 30 mM of KCl (for coronary artery) and 35 mM of KCl (for basilar artery), and after contraction was stabilized, NKH-477 was administered cumulatively. The spasmolytic effect was expressed as percentages of the inhibition, with the maximal inhibition obtained with papaverine hydrochloride (10^-4 M) being supposed to have shown 100% inhibition.

[5] = system: ADP-induced aggregation; assay: ADP-induced aggregation after intravenous administration to healthy adults; format: in vivo, healthy adults (human); details: i.v. 0.8 μg/kg/min for one hour, mean of four subjects
Procedure: (§1) A freeze-dried preparation comprising NKH-477 was dissolved in a physiological saline and administered intravenously to four healthy adults at a rate of 0.8 μg/kg/min for one hour. The degrees of ADP-induced aggregation, epinephrine-induced aggregation and collagen-induced aggregation upon end of administration were measured and compared with those before administration (each figure is the average of measurements on the four subjects).

[6] = system: collagen-induced aggregation; assay: Collagen-induced aggregation after intravenous administration to healthy adults; format: in vivo, healthy adults (human); details: i.v. 0.8 μg/kg/min for one hour, mean of four subjects
Procedure: as §1

[7] = system: epinephrine-induced aggregation; assay: Epinephrine-induced aggregation after intravenous administration to healthy adults; format: in vivo, healthy adults (human); details: i.v. 0.8 μg/kg/min for one hour, mean of four subjects
Procedure: as §1

In the case of `C=C[C@@]1(C)CC(=O)[C@]2(O)[C@@]3(C)[C@@H](O)CCC(C)(C)[C@@H]3[C@H](OC(=O)CCN(C)C)[C@H](OC(C)=O)[C@@]2(C)O1` [NKH-477, 6-(3-dimethylaminopropionyl)forskolin hydrochloride], the “Lesion reduction rate in whole-stratum skin cut-off model” value (from here on “Lesion reduction rate”) ([1]; 1 day elapsed, control 26.4) is reported as 31.7%, the “Lesion reduction rate” value ([1]; 2 days elapsed, control 36.9) is reported as 50.8% and the “Lesion reduction rate” value ([1]; 3 days elapsed, control 45.5) is reported as 56.4%. The “Lesion reduction rate” value ([1]; 5 days elapsed, control 66.8) was 79.1%, the “curing of skin ulcer” value ([1]; as compared with the control) was “curing of skin ulcer is promoted” and the IC50 [2] was 234 nM. The IC50 ([3]; Oryctolagus cuniculus, Platelet, rabbit PRP, collagen 10 μg/ml, mean, n = 5, read-out: Platelet aggregation inhibitory action (IC50), Collagen-induced aggregation) was 302 nM, the “platelet aggregation inhibitory action relative to forskolin” value ([3]; from Table 1-1 (collagen- and ADP-induced), vs forskolin) was “over 10 times” and the IC50 ([4]; Canis lupus familiaris, KCl-induced contraction, n=6) was 67.3 nM. For the same compound, the “inhibitory action against KCl-induced contraction in the coronary artery” value ([4]; Table 3, in words) was “concentration-dependent inhibitory action”, the “Inhibition rate, Coronary artery” value ([4]; line 1 of 5, printed 10^-9 M) was 6.1 ± 1.6% and the “Inhibition rate, Coronary artery” value ([4]; line 2 of 5, printed 10^-9 M) was 23.3 ± 3.2%. The “Inhibition rate, Coronary artery” value ([4]; line 3 of 5, printed 10^-9 M) was 58.8 ± 3.9%, the “Inhibition rate, Coronary artery” value ([4]; line 4 of 5, printed 10^-9 M) was 86.7 ± 1.5% and the “Inhibition rate, Coronary artery” value ([4]; line 5 of 5, printed 10^-9 M) was 94.5 ± 1.3%. The “ADP-induced aggregation upon end of administration” value ([5]; before administration 68.5%) was 57.5%, the “Inhibition rate, ADP-induced aggregation” value [5] was 21.7% and the “Collagen-induced aggregation upon end of administration” value ([6]; before administration 70.3%) was 45.8%. The “Inhibition rate, Collagen-induced aggregation” value [6] was 38.7%, the “Epinephrin-induced aggregation upon end of administration” value ([7]; before administration 47.0%) was 31.8% and the “Inhibition rate, Epinephrin-induced aggregation” value [7] was 39.6%.
